Assay results taken from US12637461B2, “Compounds for the activation of AMPK” (PFIZER INC., priority 2022, dated 2026).

Target: T1, human AMPK α2β2γ3 (Homo sapiens, UniProt O43741+P54646+Q9UGI9)
T1 construct: expressed in transfected cells; host or cells: HEK293AD cells, MaxCyte bulk electroporation
Test: Primary cellular assay: γ3 associated phospho-Thr172 AMPK detection (custom pAMPK Surefire AlphaLISA) in α2β2γ3 bulk transiently transfected HEK293 cells
Assay type: cell-based
Details: activation of human AMPK α2β2γ3 (γ3 pThr172 AMPK signal) in transiently transfected HEK293 cells, 20 minutes compound incubation; for Emax: 20 min, read-out: Assay GMean Asy. Max (%); for Emax / Assay GMean Asy. Max (%): geometric mean of the asymptotic max; for EC50: geometric mean EC50, read-out: Assay GMean EC50
Summary of the method: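 Transiently co-transfected (α2/β2/γ3 plasmids, electroporation) HEK293AD cells, plated 2 days in low-glucose DMEM+10% FBS, treated 20 min with compounds (11-point half-log dilutions). Lysates read by modified AlphaLISA capturing γ3 with pThr172 antibody detection. % effect relative to 30 μM HPE and DMSO; EC50 and Emax from curve fit.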

T1 sequence (P54646 whole entry): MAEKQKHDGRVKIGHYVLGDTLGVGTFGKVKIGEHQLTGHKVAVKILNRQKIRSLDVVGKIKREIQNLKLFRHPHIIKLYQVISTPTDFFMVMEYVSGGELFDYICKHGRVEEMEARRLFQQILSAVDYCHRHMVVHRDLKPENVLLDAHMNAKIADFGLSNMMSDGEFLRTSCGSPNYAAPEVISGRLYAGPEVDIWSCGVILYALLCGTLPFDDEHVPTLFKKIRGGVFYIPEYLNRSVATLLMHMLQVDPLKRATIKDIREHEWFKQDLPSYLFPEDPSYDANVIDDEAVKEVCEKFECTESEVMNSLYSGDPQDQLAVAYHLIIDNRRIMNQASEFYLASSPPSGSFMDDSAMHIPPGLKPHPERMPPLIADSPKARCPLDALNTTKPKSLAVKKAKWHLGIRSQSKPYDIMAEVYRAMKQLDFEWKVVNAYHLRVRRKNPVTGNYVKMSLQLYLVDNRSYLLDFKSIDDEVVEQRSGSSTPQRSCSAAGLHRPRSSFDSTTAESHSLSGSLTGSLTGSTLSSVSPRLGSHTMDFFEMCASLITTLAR
T1 sequence (O43741 whole entry): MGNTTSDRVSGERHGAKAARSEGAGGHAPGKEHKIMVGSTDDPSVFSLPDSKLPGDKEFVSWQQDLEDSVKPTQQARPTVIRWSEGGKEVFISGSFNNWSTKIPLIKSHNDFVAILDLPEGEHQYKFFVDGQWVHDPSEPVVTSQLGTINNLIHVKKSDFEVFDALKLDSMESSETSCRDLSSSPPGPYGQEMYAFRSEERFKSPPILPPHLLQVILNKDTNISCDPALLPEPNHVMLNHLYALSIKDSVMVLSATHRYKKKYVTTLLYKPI
T1 sequence (Q9UGI9 whole entry): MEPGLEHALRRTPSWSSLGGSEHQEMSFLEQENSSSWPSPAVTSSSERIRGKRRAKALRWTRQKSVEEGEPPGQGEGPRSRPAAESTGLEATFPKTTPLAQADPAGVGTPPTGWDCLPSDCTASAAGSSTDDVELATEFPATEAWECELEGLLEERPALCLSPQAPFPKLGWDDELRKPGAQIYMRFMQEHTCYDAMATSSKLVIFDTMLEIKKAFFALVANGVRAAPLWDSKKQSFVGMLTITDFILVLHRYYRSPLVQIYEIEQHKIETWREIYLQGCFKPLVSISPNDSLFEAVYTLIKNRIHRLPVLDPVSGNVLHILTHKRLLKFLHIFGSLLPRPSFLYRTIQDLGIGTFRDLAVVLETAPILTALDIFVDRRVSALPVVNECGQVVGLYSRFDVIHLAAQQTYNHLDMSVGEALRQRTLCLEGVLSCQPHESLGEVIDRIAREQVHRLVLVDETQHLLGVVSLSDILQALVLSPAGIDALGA

SMILES | Emax [%] | EC50 [nM] | Assay GMean Asy. Max (%)
CC1(c2cccc(Cl)c2F)CN(c2ccc3cncn3c2)C(=O)c2cnc(NC3CN(C(=O)[C@@H]4C[C@@H]4F)C3)nc21 (single isomer, unassigned) [compound 79] | 121 | 2830 | –
Cn1cc(F)c(N2CC(C)(c3cccc(Cl)c3F)c3c(ccc(NC4CN(C5CCCNC5=O)C4)c3F)C2=O)n1 (stereo not shown) [Example 35, 4-(3-Chloro-2-fluorophenyl)-5-fluoro-2-(4-fluoro-1-methyl-1H-pyrazol-3-yl)-4-methyl-6-{[1-(2-oxopiperidin-3-γ1)azetidin-3-yl]amino}-3,4-dihydroisoquinolin-1(2H)-one] | – | 27.2 | 119
CC1(c2cccc(Cl)c2F)CN(c2ncccc2F)C(=O)c2cnc(NC3CN(C(=O)C4(O)CC4)C3)nc21 (single isomer, unassigned) [Example 27, 8-(3-Chloro-2-fluorophenyl)-6-(3-fluoropyridin-2-yl)-2-{[1-(1-hydroxycyclopropane-1-carbonyl)azetidin-3-yl]amino}-8-methyl-7,8-dihydropyrido[4,3-d]pyrimidin-5(6H)-one] | 174 | 177 | –
CN1CCC(F)(C(=O)N2CC[C@@H](Nc3ncc4c(c3F)C(C)(c3cccc(Cl)c3F)CN(c3ncccc3F)C4=O)C2)CC1 (single isomer, unassigned) [compound 109] | 81.7 | 76.2 | –
Cn1cc(F)c(N2C[C@](C)(c3cccc(Cl)c3F)c3c(cnc(NC4CN(C(=O)C5(O)CC5)C4)c3F)C2=O)n1 [compound 62, (4R)-4-(3-chloro-2-fluorophenyl)-5-fluoro-2-(4-fluoro-1-methyl-1H-pyrazol-3-yl)-6-{[1-(1-hydroxycyclopropane-1-carbonyl)azetidin-3-yl]amino}-4-methyl-3,4-dihydro-2,7-naphthyridin-1(2H)-one] | 138 | 98.1 | –
CC(C)NCC(=O)N1CC(Nc2ncc3c(c2F)[C@@](C)(c2cccc(Cl)c2F)CN(c2nn(C)cc2F)C3=O)C1 [Example 13, (4R)-4-(3-Chloro-2-fluorophenyl)-5-fluoro-2-(4-fluoro-1-methyl-1H-pyrazol-3-yl)-4-methyl-6-[(1-{[(propan-2-γ1)amino]acetyl}azetidin-3-γ1)amino]-3,4-dihydro-2,7-naphthyridin-1(2H)-one] | – | 108 | 46.2
C[C@]1(c2cccc(Cl)c2F)CN(c2ncccc2F)C(=O)c2cnc(NC3CN(C(N)=O)C3)c(F)c21 [Example 19, 3-{[(5R)-5-(3-Chloro-2-fluorophenyl)-4-fluoro-7-(3-fluoropyridin-2-yl)-5-methyl-8-oxo-5,6,7,8-tetrahydro-2,7-naphthyridin-3-yl]amino}azetidine-1-carboxamide] | 31.3 | 87.2 | –
C[C@]1(c2cccc(Cl)c2F)CN(c2cc(F)c(CN)cc2F)C(=O)c2cnc(NC3CN(C(=O)[C@@H]4C[C@@H]4F)C3)c(F)c21 [Example 14, (4R)-2-[4-(aminomethyl)-2,5-difluorophenyl]-4-(3-chloro-2-fluorophenyl)-5-fluoro-6-({1-[(1S,2S)-2-fluorocyclopropane-1-carbonyl]azetidin-3-yl}amino)-4-methyl-3,4-dihydro-2,7-naphthyridin-1(2H)-one] | 69.4 | 33.7 | –
CN(C(=O)CN1CC(Nc2ccc3c(c2F)C(C)(c2cccc(Cl)c2F)CN(c2nn(C)cc2F)C3=O)C1)C1CC1 (single isomer, unassigned) [Example 34, 2-(3-{[4-(3-Chloro-2-fluorophenyl)-5-fluoro-2-(4-fluoro-1-methyl-1H-pyrazol-3-yl)-4-methyl-1-oxo-1,2,3,4-tetrahydroisoquinolin-6-yl]amino}azetidin-1-yl)-N-cyclopropyl-N-methylacetamide] | 208 | 31.7 | –
Cn1cc(F)c(N2C[C@](C)(c3cccc(Cl)c3F)c3c(cnc(NC4CN(C(=O)N5C[C@@H]6C[C@H]5CO6)C4)c3F)C2=O)n1 [Example 21, (4R)-4-(3-chloro-2-fluorophenyl)-5-fluoro-2-(4-fluoro-1-methyl-1H-pyrazol-3-yl)-4-methyl-6-({1-[(1S,4S)-2-oxa-5-azabicyclo[2.2.1]heptane-5-carbonyl]azetidin-3-yl}amino)-3,4-dihydro-2,7-naphthyridin-1(2H)-one] | 142 | 39.8 | –
Cc1c(F)ccc(C2(C)CN(c3ccc(CO)cn3)C(=O)c3cnc(NC4CN(C(=O)N5C[C@@H]6C[C@H]5CO6)C4)c(F)c32)c1F (single isomer, unassigned) [compound 107] | 119 | 32.7 | –

Results, then the molecule that gave them:

Emax [%] | EC50 [nM] | Assay GMean Asy. Max (%) | SMILES
76.8 | 123 | – | CC1(c2cccc(F)c2F)CN(c2ncccc2F)C(=O)c2cnc(NC3CN(C(=O)C4(O)CC4)C3)c(F)c21 (stereo not shown) [compound 108, 4-(2,3-difluorophenyl)-5-fluoro-2-(3-fluoropyridin-2-yl)-6-{[1-(1-hydroxycyclopropane-1-carbonyl)azetidin-3-yl]amino}-4-methyl-3,4-dihydro-2,7-naphthyridin-1(2H)-one, from P7 (ENANT-2)]
– | 58.9 | 109 | Cn1cc(F)c(N2CC(C)(c3cccc(Cl)c3F)c3c(ccc(NC4CN(CC(=O)N5CCC5)C4)c3F)C2=O)n1 (stereo not shown) [compound 92, 6-({1-[2-(azetidin-1-yl)-2-oxoethyl]azetidin-3-yl}amino)-4-(3-chloro-2-fluorophenyl)-5-fluoro-2-(4-fluoro-1-methyl-1H-pyrazol-3-yl)-4-methyl-3,4-dihydroisoquinolin-1(2H)-one, from P18 (ENANT-2)]
90 | 55.1 | – | Cn1cc(F)c(N2C[C@](C)(c3cccc(Cl)c3F)c3c(cnc(NC4CN(C(=O)CC(F)(F)F)C4)c3F)C2=O)n1 [compound 63, (4R)-4-(3-chloro-2-fluorophenyl)-5-fluoro-2-(4-fluoro-1-methyl-1H-pyrazol-3-yl)-4-methyl-6-{[1-(3,3,3-trifluoropropanoyl)azetidin-3-yl]amino}-3,4-dihydro-2,7-naphthyridin-1(2H)-one]
106 | 34.6 | – | CC1(c2cccc(Cl)c2F)CN(c2ncccc2F)C(=O)c2cnc(NC3CN(C(=O)N4CCC[C@@H]4CO)C3)nc21 (single isomer, unassigned) [compound 86]
100 | 92.2 | – | Cn1cc(F)c(N2C[C@](C)(c3cccc(Cl)c3F)c3c(cnc(NC4CN(C(=O)C(C)(C)O)C4)c3F)C2=O)n1 [compound 61, (4R)-4-(3-chloro-2-fluorophenyl)-5-fluoro-2-(4-fluoro-1-methyl-1H-pyrazol-3-yl)-6-{[1-(2-hydroxy-2-methylpropanoyl)azetidin-3-yl]amino}-4-methyl-3,4-dihydro-2,7-naphthyridin-1(2H)-one]
78.2 | 38.4 | – | C[C@]1(c2cccc(Cl)c2F)CN(c2cc(F)c(CO)cc2F)C(=O)c2cnc(NC3CN(C(=O)[C@@H]4C[C@@H]4F)C3)c(F)c21 [compound 77, (4R)-4-(3-chloro-2-fluorophenyl)-2-[2,5-difluoro-4-(hydroxymethyl)phenyl]-5-fluoro-6-({1-[(1S,2S)-2-fluorocyclopropane-1-carbonyl]azetidin-3-yl}amino)-4-methyl-3,4-dihydro-2,7-naphthyridin-1(2H)-one]
22.8 | 11.6 | – | C[C@]1(c2cccc(Cl)c2F)CN(c2ncccc2F)C(=O)c2cnc(NC3CN(C(=O)N4CCN5CC(F)(F)C[C@@H]5C4)C3)c(F)c21 [compound 100, (4R)-4-(3-chloro-2-fluorophenyl)-6-({1-[(8aR)-7,7-difluorohexahydropyrrolo[1,2-a]pyrazine-2(1H)-carbonyl]azetidin-3-yl}amino)-5-fluoro-2-(3-fluoropyridin-2-yl)-4-methyl-3,4-dihydro-2,7-naphthyridin-1(2H)-one]
139 | 79.5 | – | CN1CCC(C(=O)N2CC[C@@H](Nc3ncc4c(c3F)C(C)(c3cccc(Cl)c3F)CN(c3ncccc3F)C4=O)C2)CC1 (single isomer, unassigned) [Example 24]
– | > 55.7 | 118.8 | Cn1cc(F)c(N2C[C@](C)(c3cccc(Cl)c3F)c3c(cnc(NC4CN(C(=O)C(C)(O)C5CC5)C4)c3F)C2=O)n1 (single isomer, unassigned) [Example 9]
80.2 | 120 | – | CN(C)CC(=O)N1CC(Nc2ncc3c(c2F)[C@@](C)(c2cccc(Cl)c2F)CN(c2nn(C)cc2F)C3=O)C1 [compound 41, (4R)-4-(3-chloro-2-fluorophenyl)-6-({1-[(dimethylamino)acetyl]azetidin-3-yl}amino)-5-fluoro-2-(4-fluoro-1-methyl-1H-pyrazol-3-yl)-4-methyl-3,4-dihydro-2,7-naphthyridin-1(2H)-one]
49.8 | 32.1 | – | Cc1c(F)ccc(C2(C)CN(c3ccc(N)cn3)C(=O)c3cnc(NC4CN(C(=O)[C@@H]5C[C@@H]5F)C4)c(F)c32)c1F (single isomer, unassigned) [compound 104]
96.3 | 66.3 | – | C[C@]1(c2cccc(Cl)c2F)CN(c2ccc(CO)cn2)C(=O)c2cnc(NC3CN(C(=O)c4cccnn4)C3)c(F)c21 [Example 4, (4R)-4-(3-Chloro-2-fluorophenyl)-5-fluoro-2-[5-(hydroxymethyl)pyridin-2-yl]-4-methyl-6-{[1-(pyridazine-3-carbonyl)azetidin-3-yl]amino}-3,4-dihydro-2,7-naphthyridin-1(2H)-one]
